Results on 30 molecules are retold here after patent publication US5089623A, “Certain imidate insecticides” (Imperial Chemical Industries Plc, priority 1990, dated 1992).

Common to all, as to format: in vivo
Experiment [1] relates to Housefly [Musca domestica]. Put plainly: Housefly insecticidal test (HF). As to conditions: per 25 female houseflies, 48 hours.
Experiment [2] relates to Tobacco Budworm [Heliothis virescens (Fabricius)] eggs. Put plainly: Tobacco budworm egg test (TBW-E). The note with it: percent in solution.
Experiment [3] concerns Cabbage Looper [Trichoplusia ni (Hubner)]. Put plainly: Cabbage looper test (CL). The note with it: second-instar larvae, 3-5 days, percent in solution.
Experiment [4] has as its system Aster Leafhopper [Macrosteles fascifrens (Stal)]. Put plainly: Aster leafhopper test (LH). As to conditions: adults/nymphs, 48 hours, percent in solution.
The subject of experiment [5] is Maize weevil [Sitophilus Zeamais (Motschulsky)]. The experiment can be described thus: Maize weevil test (MW). The note with it: adult weevils, treated corn seeds, 48 hours, percent in solution. In outline:
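Adult weevils (10) were placed with four corn seeds that had been dipped 2-3 s in compound dissolved in 50:50 acetone:water, then dried, and held at about 25° C. Mortality was scored at 48 h. LC50 was taken from dosage-mortality curves and expressed as percent compound in solution, from a 0.01% top concentration.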

On to `CC(C)C(=Nc1ccc2c(c1)OCO2)OCc1cccc(Oc2ccc(Cl)cc2)c1` [Compound 240], for which the “LC50 HF” value in experiment [1] worked out at 14 µg. Further, in experiment [2], the “LC50 TBW E” value is 0.04%. In addition, the “LC50 CL” value in experiment [3] came out at 0.0003%. In addition, the “LC50 LH” value in experiment [4] is listed as above 0.05%. For the same molecule, the “LC50 MW” value in experiment [5] is reported as above 0.01%.
Turning to `CC(C)C(=Nc1cccc(I)c1)OCc1cccc(Oc2ccc(F)cc2)c1` [Compound 255], the “LC50 HF” value in experiment [1] stood at 16 µg. In experiment [2], the “LC50 TBW E” value is 0.075%. The “LC50 CL” value in experiment [3] stood at 0.00017%. In experiment [4], the “LC50 LH” value is listed as 0.0005%. Also, the “LC50 MW” value in experiment [5] is above 0.01%.
The matching figures for `CSc1ccc(Oc2cccc(COC(=Nc3ccc(F)c(Cl)c3)C(C)C)c2)cc1` [Compound 256]: above 100 µg, 0.1%, 0.007%, above 0.05% and above 0.01%.
The matching figures for `CC(C)C(=Nc1ccc(F)cc1)OCc1cccc(Oc2ccc(Br)cc2)c1` [Compound 259]: 15 µg, 0.05%, 0.0003%, above 0.05% and above 0.01%.
For `CC(C)C(=Nc1ccc(F)c([N+](=O)[O-])c1)OCc1cccc(Oc2ccccc2)c1` [Compound 293], the “LC50 HF” value in experiment [1] was 19 µg. The “LC50 TBW E” value in experiment [2] was above 0.1%. Further, the “LC50 CL” value in experiment [3] worked out at 0.0045%. Moreover, in experiment [4], the “LC50 LH” value is reported as above 0.05%. Further, the “LC50 MW” value in experiment [5] is above 0.01%.
Regarding `CC(C)(F)C(=Nc1ccc(F)c(Cl)c1)OCc1cccc(Oc2ccc(F)cc2F)c1` [Compound 315], the “LC50 HF” value in experiment [1] was above 100 µg. For the same molecule, the “LC50 TBW E” value in experiment [2] is listed as above 0.1%. Besides, the “LC50 CL” value in experiment [3] was 0.002%. The “LC50 LH” value in experiment [4] was above 0.05%. Further, the “LC50 MW” value in experiment [5] is above 0.01%.
`CC(C)(F)C(=Nc1ccc(F)c(Cl)c1)OCc1cc(Oc2ccc(F)cc2)ccc1F` [Compound 316]: in experiment [1], the “LC50 HF” value worked out at 100 µg. Moreover, in experiment [2], the “LC50 TBW E” value is above 0.1%. Also, the “LC50 CL” value in experiment [3] came to 0.0015%. Besides, the “LC50 LH” value in experiment [4] is reported as above 0.05%. Besides, in experiment [5], the “LC50 MW” value was above 0.01%.
With `CC(C)C(=Nc1cccc(C(C)(C)C)c1)OCc1cccc(Oc2ccc(F)cc2)c1` [Compound 350], the “LC50 HF” value in experiment [1] is above 100 µg. The “LC50 TBW E” value in experiment [2] was above 0.1%. Moreover, in experiment [3], the “LC50 CL” value amounted to 0.0045%. Further, the “LC50 LH” value in experiment [4] is reported as above 0.05%. The “LC50 MW” value in experiment [5] was above 0.01%.
Take `CC(C)C(=Nc1ccc(Br)cc1F)OCc1cccc(Oc2ccc(F)cc2)c1` [Compound 351]: the “LC50 HF” value in experiment [1] is 26 µg. Moreover, in experiment [2], the “LC50 TBW E” value is reported as above 0.1%. The “LC50 CL” value in experiment [3] stood at 0.0007%. For the same molecule, the “LC50 LH” value in experiment [4] was above 0.05%. The “LC50 MW” value in experiment [5] was above 0.01%.
The like results for `CSc1ccc(N=C(OCc2ccc(F)c(Oc3ccccc3)c2)C(C)C)cc1` [Compound 353] were, in that order, below 100 µg, above 0.1%, above 0.1%, above 0.05% and above 0.01%.
With `Cc1ccc(N=C(OCc2ccc(F)c(Oc3ccccc3)c2)C(C)C)cc1F` [Compound 354], the “LC50 HF” value in experiment [1] was below 100 µg. Besides, in experiment [2], the “LC50 TBW E” value was 0.018%. The “LC50 CL” value in experiment [3] is on record as above 0.1%. Besides, the “LC50 LH” value in experiment [4] is recorded as below 0.05%. The “LC50 MW” value in experiment [5] is reported as 0.0068%.
The like results for `Cc1ccc(N=C(OCc2ccc(F)c(Oc3ccc(F)cc3)c2)C(C)C)cc1F` [Compound 355] were, in that order, below 100 µg, above 0.1%, above 0.1%, below 0.05% and above 0.01%.
The matching figures for `Cc1ccc(N=C(OCc2ccc(F)c(Oc3ccccc3)c2)C(C)C)cc1Cl` [Compound 356]: below 100 µg, 0.025%, above 0.1%, below 0.05% and above 0.01%.
With `Cc1ccc(N=C(OCc2ccc(F)c(Oc3ccc(F)cc3)c2)C(C)C)cc1Cl` [Compound 357], in experiment [1], the “LC50 HF” value is below 100 µg. Besides, the “LC50 TBW E” value in experiment [2] is given as above 0.1%. Moreover, in experiment [3], the “LC50 CL” value was above 0.1%. Further, the “LC50 LH” value in experiment [4] is listed as below 0.05%. In experiment [5], the “LC50 MW” value stood at 0.01%.
With `Cc1cc(N=C(OCc2ccc(F)c(Oc3ccccc3)c2)C(C)C)ccc1Br` [Compound 358], in experiment [1], the “LC50 HF” value was below 100 µg. Further, in experiment [2], the “LC50 TBW E” value was above 0.1%. Moreover, the “LC50 CL” value in experiment [3] is recorded as above 0.1%. For the same molecule, in experiment [4], the “LC50 LH” value was below 0.05%. Further, in experiment [5], the “LC50 MW” value was above 0.01%.
As to `Cc1cc(N=C(OCc2ccc(F)c(Oc3ccc(F)cc3)c2)C(C)C)ccc1Br` [Compound 359], the “LC50 HF” value in experiment [1] was below 100 µg. Moreover, in experiment [2], the “LC50 TBW E” value is given as 0.023%. Moreover, the “LC50 CL” value in experiment [3] is on record as above 0.1%. For the same molecule, the “LC50 LH” value in experiment [4] is reported as 0.05%. The “LC50 MW” value in experiment [5] is given as above 0.01%.
The matching figures for `CCc1ccc(N=C(OCc2ccc(F)c(Oc3ccccc3)c2)C(C)C)cc1` [Compound 360]: below 100 µg, above 0.1%, 0.006%, below 0.05% and above 0.01%.
With `CCc1ccc(N=C(OCc2ccc(F)c(Oc3ccc(F)cc3)c2)C(C)C)cc1` [Compound 361], the “LC50 HF” value in experiment [1] is below 100 µg. The “LC50 TBW E” value in experiment [2] turned out to be 0.04%. In addition, the “LC50 CL” value in experiment [3] is listed as 0.001%. Moreover, the “LC50 LH” value in experiment [4] is on record as below 0.05%. In addition, the “LC50 MW” value in experiment [5] is on record as above 0.01%.
As to `CSc1cccc(N=C(OCc2ccc(F)c(Oc3ccccc3)c2)C(C)C)c1` [Compound 362], the “LC50 HF” value in experiment [1] is below 100 µg. In addition, in experiment [2], the “LC50 TBW E” value is above 0.1%. Besides, in experiment [3], the “LC50 CL” value is above 0.1%. The “LC50 LH” value in experiment [4] is listed as above 0.05%. In experiment [5], the “LC50 MW” value is above 0.01%.
As to `COc1ccc(N=C(OCc2ccc(F)c(Oc3ccc(F)cc3)c2)C(C)C)cc1OC` [Compound 363], the “LC50 HF” value in experiment [1] is below 100 µg. Also, in experiment [2], the “LC50 TBW E” value is above 0.1%. Moreover, the “LC50 CL” value in experiment [3] was above 0.1%. Also, the “LC50 LH” value in experiment [4] was above 0.05%. The “LC50 MW” value in experiment [5] is above 0.01%.
Take `CC(C)C(=Nc1ccc(Br)c(C(F)(F)F)c1)OCc1ccc(F)c(Oc2ccc(F)cc2)c1` [Compound 364]: the “LC50 HF” value in experiment [1] was below 100 µg. For the same molecule, the “LC50 TBW E” value in experiment [2] stood at 0.025%. Also, in experiment [3], the “LC50 CL” value amounted to 0.00045%. Moreover, the “LC50 LH” value in experiment [4] is below 0.05%. The “LC50 MW” value in experiment [5] is on record as above 0.01%.
Take `CC(C)C(=Nc1ccc(C(F)(F)F)cc1)OCc1cccc(Oc2ccc(Cl)cc2)c1` [Compound 365]: in experiment [1], the “LC50 HF” value is above 100 µg. The “LC50 TBW E” value in experiment [2] amounted to 0.038%. Moreover, in experiment [3], the “LC50 CL” value was 0.00025%. Moreover, in experiment [4], the “LC50 LH” value is below 0.05%. In addition, the “LC50 MW” value in experiment [5] is listed as above 0.01%.
`CC(C)C(=Nc1ccc2c(c1)OCO2)OCc1ccc(F)c(Oc2ccc(Cl)cc2)c1` [Compound 366]: in experiment [1], the “LC50 HF” value is below 100 µg. Further, the “LC50 TBW E” value in experiment [2] was determined as 0.012%. The “LC50 CL” value in experiment [3] amounted to 0.0007%. The “LC50 LH” value in experiment [4] was 0.05%. Besides, the “LC50 MW” value in experiment [5] is listed as above 0.01%.
On to `CC(C)C(=Nc1ccc2c(c1)OCO2)OCc1cccc(Oc2ccc(C(C)(C)C)cc2)c1` [Compound 367], for which the “LC50 HF” value in experiment [1] was above 100 µg. Moreover, the “LC50 TBW E” value in experiment [2] was above 0.1%. In experiment [3], the “LC50 CL” value is reported as below 0.1%. For the same molecule, the “LC50 LH” value in experiment [4] is above 0.05%. Also, the “LC50 MW” value in experiment [5] is reported as above 0.01%.
The matching figures for `CC(C)C(=Nc1ccc(F)cc1)OCCc1cccc(Oc2ccccc2)c1` [Compound 456]: above 100 µg, above 0.05%, 0.017%, above 0.05% and above 0.01%.
As to `CC(C)C(=Nc1ccc2c(c1)OCO2)OCc1cccc(Oc2ccc(Cl)cc2)n1` [Compound 466], in experiment [1], the “LC50 HF” value worked out at 13 µg. Further, the “LC50 TBW E” value in experiment [2] is recorded as above 0.1%. Moreover, the “LC50 CL” value in experiment [3] is listed as 0.0008%. In addition, the “LC50 LH” value in experiment [4] is reported as above 0.05%. In addition, in experiment [5], the “LC50 MW” value is recorded as 0.01%.
For `CC(C)C(=Nc1ccc(F)c(Cl)c1)OCc1ccc(OCc2ccccc2)cc1` [Compound 475], in experiment [1], the “LC50 HF” value was above 100 µg. Further, in experiment [2], the “LC50 TBW E” value was above 0.1%. For the same molecule, the “LC50 CL” value in experiment [3] was found to be 0.008%. Moreover, the “LC50 LH” value in experiment [4] is above 0.05%. For the same molecule, the “LC50 MW” value in experiment [5] is on record as above 0.01%.
`CC(C)C(=Nc1ccc(F)c(Cl)c1)OCc1cccc(OCc2ccc(F)cc2)c1` [Compound 490]: the “LC50 HF” value in experiment [1] was above 100 µg. The “LC50 TBW E” value in experiment [2] is listed as above 0.1%. For the same molecule, the “LC50 CL” value in experiment [3] came to 0.0045%. In addition, the “LC50 LH” value in experiment [4] is listed as above 0.05%. Further, the “LC50 MW” value in experiment [5] is above 0.01%.
For the molecule `CC(C)C(=Nc1ccc(F)c(Cl)c1)OCc1cccc(Oc2ccc(Br)cc2)n1` [Compound 492], the “LC50 HF” value in experiment [1] is 15 µg. In experiment [2], the “LC50 TBW E” value amounted to 0.015%. Also, the “LC50 CL” value in experiment [3] was found to be 0.00028%. Also, the “LC50 LH” value in experiment [4] is reported as above 0.05%. Besides, in experiment [5], the “LC50 MW” value is above 0.01%.
As to `CC(C)C(=Nc1ccc(F)c(Cl)c1)OCc1cccc(Nc2ccc(F)cc2)c1` [Compound 512], in experiment [1], the “LC50 HF” value amounted to 35 µg. Also, in experiment [2], the “LC50 TBW E” value is reported as above 0.1%. In experiment [3], the “LC50 CL” value is on record as 0.003%. Besides, the “LC50 LH” value in experiment [4] was above 0.05%. Further, the “LC50 MW” value in experiment [5] is above 0.01%.
